Test results taken from paper PMC3929365, “Benzimidazoisoquinolines: A New Class of Rapidly Metabolized Aryl Hydrocarbon Receptor (AhR) Ligands that Induce AhR-Dependent Tregs and Prevent Murine Graft-Versus-Host Disease” (PLoS ONE, 2014).

Tests used:
activated T cells = test: T cell proliferation in vitro (CFSE dilution, anti-CD3/anti-CD28); assay type: cell-based, C57Bl/6 mice; conditions: 100 nM, 72 h, anti-CD3 and anti-CD28
Description: A. Splenocytes from C57Bl/6 mice were labeled with CFSE and activated in vitro with anti-CD3 and anti-CD28 in the presence of 100 nM 10-Cl-BBQ or DMSO for 72 h. B. C57Bl/6 donor T cells were labeled with CFSE and injected into B6D2F1 host mice to initiate the GVH response. Host mice (n = 5 per group) were treated with vehicle or 10-Cl-BBQ i.p. (10 mg/kg/d) for two days. Donor cells were identified by gating on CD4^+CFSE^+ cells. […] (TIF) Click here for additional data file.

GVHD = test: Graft-versus-host disease (GVHD) model, 15 days; assay type: in vivo; conditions: for GVHD pathology (clinical pathology score): 10 mg/kg then 2 mg/kg/day, day 15
Description: Splenocytes and lymphocytes were harvested from C57Bl/6 mice. In some experiments, T cells were purified by negative selection using a Pan-T kit (Miltenyi Biotec) and stained with 2 µM carboxyfluorescein succinimidyl ester (CFSE) (Life Technologies). At least 2×10^7 purified T cells or approximately 1×10^8 pooled splenocytes and lymphocytes were injected i.v. into B6D2F1 host mice to initiate the GVH response. GVHD pathology was assessed on a scale of 0 to 3 (0 = normal, 1 = moderate morbidity, 2 = severe morbidity, 3 = death) according to the following five criteria: weight-loss, posture, activity, fur texture and death and reported as a Clinical GVHD Score.
Host mice were treated daily with vehicle, 10-Cl-BBQ or BBQ analogues by i.p. injection. The vehicle consisted of a mixture of 6.7% anisole and peanut oil. Mice treated with a single i.p. dose of 15 µg TCDD/kg body weight in the same vehicle were used as positive controls.
Figure 4 10-Cl-BBQ suppresses GVHD in an AhR-dependent manner. A) B6D2F1 host mice were injected with wild-type (WT) or AhR-deficient (AhR^−/−) splenocytes to initiate the GVH response; mice were given 10-Cl-BBQ or vehicle treatments daily for 15 days. A single loading dose of 10 mg/kg 10-Cl-BBQ was given at the time of donor cell injection and a maintenance dose of 2 mg/kg was given every day thereafter until the end of the experiment. The progression of GVHD was monitored and a clinical pathology score as defined in Methods was calculated. GVHD was suppressed by 10-Cl-BBQ only if the donor cells expressed AhR. In a separate study, B6D2F1 host mice in groups of 6 were injected with splenocytes from C57Bl/6 mice to initiate the GVH response, and treated with 10-Cl-BBQ or vehicle daily for 15 days as in (A). TCDD (15 µg/kg) was given to an additional group of 6 mice on day 0 as a positive control. […] The donor cells were identified in the host spleen as the H-2D^d negative population.* = p<0.05 vs vehicle control. TEXT PRINTED IN THE PICTURE: (C) TCDD: 17 | (C) 10-Cl-BBQ: 11 | (E) TCDD: 29 | (E) 10-Cl-BBQ: 35 DOUBTS OF THE COPYIST ABOUT THIS PICTURE: Panels C and E: the numbers inside the flow cytometry plots are printed without any measure or unit, so they are copied as bare numbers (plot axes: CD44 vs CD45RB in C, CD19 vs H-2D^d in E). / The Vehicle control plots also print numbers (C: 36; E: 2). They are not listed in lines because Vehicle is a control, not a substance.

CYP1A1 mRNA = test: Hepatic CYP1A1 mRNA induction after single i.p. dose; assay type: in vivo, C57BL/6 mice; conditions: 10 mg/kg i.p.
Description: RNA was isolated from lymph nodes of B6D2F1 host mice with the RNeasy Mini Kit (Qiagen). cDNA was prepared from at least 1 µg RNA in a 2-step reaction using the ReactionReady First Strand cDNA synthesis kit (SA Biosciences) according to the manufacturer’s instructions and Superscript III reverse-transcriptase (Life Technologies). The qPCR reaction was carried out on an ABI PRISM 7500 Real-Time PCR system (Applied Biosystems). The reaction mixture consisted of SYBR Green/ROX qPCR Master Mix (SA Bioscience), 2–10 ng-RNA equivalent cDNA and 1 µl of the gene-specific commercial primer sets (SA Biosciences). The following conditions were used: 10 min at 95°C (1 cycle), 15 s at 95°C and 1 min at 60°C (40 cycles). The melt-curve was generated at 95°C for 15 s. The process was validated by utilizing a no-reverse-transcriptase control. The raw data was normalized to Actb and the fold-change was calculated by the ΔΔCt method using vehicle-treated sample values as the control.
Figure 2 Pharmacokinetics of 10-Cl-BBQ. C57BL/6 mice were given 10 mg/kg 10-Cl-BBQ by i.p. injection. A) Blood was collected at the indicated times by cardiac puncture. The serum was processed to remove protein and the samples were analyzed by QTRAP 4000 LC/MS/MS. The serum concentration of 10-Cl-BBQ was determined from a standard curve based on known concentrations of 10-Cl-BBQ. B) Liver tissue was harvested and processed for mRNA analysis. CYP1A1 gene expression was determined relative to the β-actin gene, and the fold-induction was determined by the ΔΔCt method using the vehicle-treated samples as a control. The mean values are shown with SEM for 2–3 mice per time point.

AhR [1] = test: Subtilisin proteolysis pattern of AhR in Hepa1c1c7 whole cell lysate; assay type: biochemical, mouse; conditions: 100 nM, 1 h, 1 µg/ml subtilisin
Description: (§1) Figure 1 10-Cl-BBQ is a potent AhR ligand. A) Structure of 10-Cl-BBQ. […] C) Hepa-1 cells expressing endogenous AhR were transfected with an AhR-regulated luciferase reporter gene (xenobiotic responsive element (XRE)-MMTVpromoter-Luc) and the reporter gene activity was measured after 12 h of treatment with 1 nM TCDD or the indicated concentrations of 10-Cl-BBQ. D) Alteration in proteolytic pattern of AhR by 10-Cl-BBQ. Whole cell lysate (45 µg of protein) from mouse hepatoma Hepa1c1c7 cells was incubated with 100 nM 10-Cl-BBQ or 0.1% DMSO for 1 h at RT and proteolyzed by 1 µg/ml subtilisin for 1, 2, 4, and 8 min at RT. Proteolytic cleavage products of AhR were analyzed by immunoblot. E) Electrophoretic mobility shift assay showing the ligand-stimulated binding of AhR to XRE. Whole cell lysate (18 µg of protein) from mouse hepatoma Hepa1c1c7 cells was incubated with 10 nM 10-Cl-BBQ or 0.1% DMSO for 2 h at room temperature and ^32P-labeled oligonucleotide containing XRE for 20 min at room temperature. The samples were electrophoresed on a native polyacrylamide gel and the signal was visualized by Phosphor Imager. Unlabeled competitor XRE or antibody (Ab) against AhR or Arnt was co-incubated with ^32P-labeled oligonucleotide.

AhR [2] = test: AhR-regulated (XRE) luciferase reporter gene assay in Hepa-1 cells; assay type: cell-based, mouse; conditions: nanomolar concentrations, 12 h, Hepa-1 cells
Description: as §1
The mean luciferase activity is shown with SEM. […] 3-MC binding to AhR.

O=c1c2cccc3cccc(c32)c2nc3ccc(Cl)cc3n12 [10-Cl-BBQ, 10-chloro-7H-benzimidazo[2,1-a]benzo[de]isoquinolin-7-one]
proliferation of activated T cells in vitro (activated T cells): did not inhibit proliferation | GVHD pathology (clinical pathology score) (GVHD; AhR-deficient donor cells): not affected | GVHD pathology (clinical pathology score) (GVHD; AhR-wild type donor cells): significantly reduced | overt toxicity (GVHD; daily treatment during the GVH response): without overt toxicity | engraftment of donor cells in host spleen (GVHD; day 15, 10 mg/kg then 2 mg/kg daily): significantly reduced the engraftment of donor cells | Cyp1a1 mRNA induction in hepatic tissue (CYP1A1 mRNA; 4 hours): 2 fold | Cyp1a1 mRNA induction in hepatic tissue (CYP1A1 mRNA; 20 hr): up to 7 fold | Cyp1a1 mRNA induction in hepatic tissue (CYP1A1 mRNA; 48 h): no longer apparent | proteolysis of AhR (AhR [1]): delayed its proteolysis | activation of the AhR-regulated reporter gene (AhR [2]): activated the AhR-regulated reporter gene
